Source: PubChem BioAssay AID1918935 (Molecular Pharmacology Branch, DTP, NCI, 2023)
Where “and” joins values, the source holds several entries; their conditions need not be identical. Equal entries are not always repeated.

Tested on: 324938-238-R-J1-PDC complex spheroid viability
Assay: Anticancer human tumor 324938-238-R-J1-PDC patient-derived bladder carcinoma cell line growth inhibition
Details: for viability, T/C: stronger effect = lower value
Method in brief: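 Drug combinations with the LSD1 inhibitor iadademstat tested on tumor cells co-cultured as spheroids with endothelial cells and mesenchymal stem cells. Concentrations descended in half-log increments from clinical Cmax or 10 microM.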

[1] = curve of first compound, second compound 0.1 µM
[2] = curve of first compound, second compound 0.316 µM
[3] = curve of first compound, second compound 1 µM
[4] = curve of first compound, second compound 3.16 µM
[5] = curve of first compound, second compound 10 µM
[6] = second compound 0.1 µM, first compound 0.00316 µM
[7] = second compound 0.1 µM, first compound 0.01 µM
[8] = second compound 0.1 µM, first compound 0.0316 µM
[9] = second compound 0.1 µM, first compound 0.1 µM
[10] = second compound 0.316 µM, first compound 0.00316 µM
[11] = second compound 0.316 µM, first compound 0.01 µM
[12] = second compound 0.316 µM, first compound 0.0316 µM
[13] = second compound 0.316 µM, first compound 0.1 µM
[14] = second compound 1 µM, first compound 0.00316 µM
[15] = second compound 1 µM, first compound 0.01 µM
[16] = second compound 1 µM, first compound 0.0316 µM
[17] = second compound 1 µM, first compound 0.1 µM
[18] = second compound 3.16 µM, first compound 0.00316 µM
[19] = second compound 3.16 µM, first compound 0.01 µM
[20] = second compound 3.16 µM, first compound 0.0316 µM
[21] = second compound 3.16 µM, first compound 0.1 µM
[22] = second compound 10 µM, first compound 0.00316 µM
[23] = second compound 10 µM, first compound 0.01 µM
[24] = second compound 10 µM, first compound 0.0316 µM
[25] = second compound 10 µM, first compound 0.1 µM
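Note: spheroids also contain HUVEC and human MSCs and agents combined with iadademstat; spheroids exposed to agents for 7 days before readout.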

CC[C@@]1(O)C(=O)OCc2c1cc1n(c2=O)Cc2cc3c(CN(C)C)c(O)ccc3nc2-1 + NC1CCC(NC2CC2c2ccccc2)CC1
IC50 [1]: 1.54 nM | IC50 [2]: 1.49 nM | IC50 [3]: 1.58 nM | IC50 [4]: 1.42 nM | IC50 [5]: 1.16 nM | viability, T/C (second compound 0.1 µM, first compound 0.000316 µM): 84.7% | viability, T/C (second compound 0.1 µM, first compound 0.001 µM): 64.7% | viability, T/C [6]: 25.5% | viability, T/C [7]: 9.38% | viability, T/C [8]: 7.9% | viability, T/C [9]: 8.7% | viability, T/C (second compound 0.316 µM, first compound 0.000316 µM): 82.5% | viability, T/C (second compound 0.316 µM, first compound 0.001 µM): 63.2% | viability, T/C [10]: 25.3% | viability, T/C [11]: 9.31% | viability, T/C [12]: 9.04% | viability, T/C [13]: 8.45% | viability, T/C (second compound 1 µM, first compound 0.000316 µM): 83.2% | viability, T/C (second compound 1 µM, first compound 0.001 µM): 66.3% | viability, T/C [14]: 25.4% | viability, T/C [15]: 8.84% | viability, T/C [16]: 9.27% | viability, T/C [17]: 8.86% | viability, T/C (second compound 3.16 µM, first compound 0.000316 µM): 74.5% | viability, T/C (second compound 3.16 µM, first compound 0.001 µM): 61.1% | viability, T/C [18]: 24.9% | viability, T/C [19]: 10.1% | viability, T/C [20]: 8.96% | viability, T/C [21]: 9.71% | viability, T/C (second compound 10 µM, first compound 0.000316 µM): 74.2% | viability, T/C (second compound 10 µM, first compound 0.001 µM): 53.7% | viability, T/C [22]: 23.9% | viability, T/C [23]: 9.28% | viability, T/C [24]: 9.85% | viability, T/C [25]: 9.19%

NC1CCC(NC2CC2c2ccccc2)CC1 (stereo not drawn)
viability, T/C (compound 0.1 µM): 78.6% [middle of 25 runs] | viability, T/C (compound 0.316 µM): 86.7% and 75.8% and 76.6% | viability, T/C (compound 1 µM): 75.9% [middle of 25 runs] | viability, T/C (compound 3.16 µM): 73.6% [middle of 24 runs] | viability, T/C (compound 10 µM): 72.2% [middle of 23 runs] | IC50 (compound alone, run of 11/29/2021): > 10000 nM

NS(=O)(=O)OCC1CC(n2ccc3c(NC4CCc5ccccc54)ncnc32)CC1O (stereo not drawn)
viability, T/C (compound 0.00949 µM): 103% and 106% | viability, T/C (compound 0.03 µM): 106% and 112% | viability, T/C (compound 0.0949 µM): 93.4% and 94% | viability, T/C (compound 0.3 µM): 54.2% and 43.8% | viability, T/C (compound 0.949 µM): 12.5% and 10.2% | viability, T/C (compound 3 µM): 15.6% and 11.9% | IC50 (curve of compound): 326 nM and 256 nM

O=C(C=Cn1cnc(-c2cc(C(F)(F)F)cc(C(F)(F)F)c2)n1)NNc1cnccn1 + NC1CCC(NC2CC2c2ccccc2)CC1
IC50 [1]: 4.66 nM | IC50 [2]: < 3.16 nM | IC50 [3]: 5.06 nM | IC50 [4]: 4.22 nM | IC50 [5]: 4.01 nM | viability, T/C [6]: 55.5% | viability, T/C [7]: 39.2% | viability, T/C [8]: 19.9% | viability, T/C [9]: 10.1% | viability, T/C (second compound 0.1 µM, first compound 0.316 µM): 6.81% | viability, T/C (second compound 0.1 µM, first compound 1 µM): 3.54% | viability, T/C [10]: 49.3% | viability, T/C [11]: 37.7% | viability, T/C [12]: 19.9% | viability, T/C [13]: 9.54% | viability, T/C (second compound 0.316 µM, first compound 0.316 µM): 6.12% | viability, T/C (second compound 0.316 µM, first compound 1 µM): 3.24% | viability, T/C [14]: 56.9% | viability, T/C [15]: 40% | viability, T/C [16]: 22.6% | viability, T/C [17]: 11.8% | viability, T/C (second compound 1 µM, first compound 0.316 µM): 5.1% | viability, T/C (second compound 1 µM, first compound 1 µM): 3.42% | viability, T/C [18]: 53.8% | viability, T/C [19]: 38.8% | viability, T/C [20]: 22.6% | viability, T/C [21]: 12% | viability, T/C (second compound 3.16 µM, first compound 0.316 µM): 6.8% | viability, T/C (second compound 3.16 µM, first compound 1 µM): 4.08% | viability, T/C [22]: 53.4% | viability, T/C [23]: 37.1% | viability, T/C [24]: 25.7% | viability, T/C [25]: 15.3% | viability, T/C (second compound 10 µM, first compound 0.316 µM): 7.05% | viability, T/C (second compound 10 µM, first compound 1 µM): 4.89%
